Measurements published in ChEMBL document CHEMBL1121969, “Synthesis and antiviral properties of some 2'-deoxy-5-(fluoroalkenyl)uridines” (1982).
Values after ≈ are worked out from the molar mass of the structure shown.

Test system: Human alphaherpesvirus 1
Test: Antiviral activity against various strains of Herpes Simplex virus type I
Assay type: functional
Settings: read-out: ID50 (the source's name)

Point of comparison: `O=c1[nH]c(=O)n([C@H]2C[C@H](O)[C@@H](CO)O2)cc1I` [IDOXURIDINE], IC50 4.4 µg/mL (≈ 12.4 µM). Against it:
- O=c1[nH]c(=O)n([C@H]2C[C@H](O)[C@@H](CO)O2)cc1/C(F)=C(\F)Cl.O=c1[nH]c(=O)n([C@H]2C[C@H](O)[C@@H](CO)O2)cc1C(F)=C(Cl)Cl — 5.5-fold higher, 24 µg/mL
- O=c1[nH]c(=O)n([C@H]2C[C@H](O)[C@@H](CO)O2)cc1C(F)=C(Cl)Cl — 5.9-fold higher, 26 µg/mL (≈ 76.2 µM)
- Nc1nc2c(ncn2COCCO)c(=O)[nH]1 [ACYCLOVIR] — 5.5-fold lower, 0.8 µg/mL (≈ 3.55 µM)
- Nc1ncnc2c1ncn2[C@@H]1O[C@H](CO)[C@@H](O)[C@H]1O [ADENOSINE] — 4.8-fold higher, 21 µg/mL (≈ 78.6 µM)
- O=c1[nH]c(=O)n([C@H]2C[C@H](O)[C@@H](CO)O2)cc1/C=C/Br [BRIVUDINE] — 63-fold lower, 0.07 µg/mL (≈ 0.21 µM)
